Key:
Assay type in all cases: cell-based
Design in all cases: key to SI (synergy index): SI = Qa/QA + Qb/QB; >1 antagonism, lower SI = greater synergy
[1] = test system: Escherichia coli (E. coli—ATCC #8739); experiment: Synergy test, microtiter plate high resolution MIC assay, bacterium in M9GY medium; conditions: for SI: E. coli 8739 - M9GY
Protocol: (§1) When the sum of Qa/QA and Qb/QB is greater than one, antagonism is indicated. […] The lower the SI, the greater the synergy shown by that particular mixture. The minimum inhibitory concentration (MIC) of a microbicide is the lowest concentration tested under a specific set of conditions that prevents the growth of added microorganisms.
(§2) Synergy tests were conducted using standard microtiter plate assays with media designed for optimal growth of the test microorganism. Minimal salt medium supplemented with 0.2% glucose and 0.1% yeast extract (M9GY medium) was used for testing bacteria; Potato Dextrose Broth (PDB medium) was used for testing yeast and mold. In this method, a wide range of combinations of microbicides and other personal care raw materials was tested by conducting high resolution MIC assays in the presence of various concentrations of BBIT or MBIT. High resolution MICs were determined by adding varying amounts of microbicide to one column of a microtitre plate and doing subsequent […] dilutions using an automated liquid handling system to obtain a series of endpoints ranging from 2 ppm to 10,000 ppm active ingredient.
(§3) The bacteria were used at a concentration of about 5 ×10^6 bacteria per mL and the yeast and mold at 5×10^5 fungi per mL. These microorganisms are representative of natural contaminants in many consumer and industrial applications. […] (yeast and mold) or 30° C. (bacteria).
(§4) In each test, First Component (A) was BBIT and the Second Component (B) was the other commercial microbicide.
(§5) In each test, First Component (A) was MBIT and the Second Component (B) was the other commercial microbicide.

[2] = test system: Candida albicans (C. albicans—ATCC 10231); experiment: Synergy test, microtiter plate high resolution MIC assay, yeast in PDB medium; conditions: for SI: C. albicans 10231 - PDB
Protocol: as §1, §2, §3, §4, §5

[3] = test system: Aspergillus niger (A. niger—ATCC 16404); experiment: Synergy test, microtiter plate high resolution MIC assay, mold in PDB medium; conditions: 7 days; for SI: A. niger 16404 - PDB
Protocol: as §1, §2, §3, §4, §5

[4] = 24 hours, BBIT with Propylparaben

Row | MIC ([1]; Escherichia coli, ATCC8739, E. coli 8739, M9GY, 48 hours, alone where Qa = 0, otherwise in the mixture, read-out: Qb (concentration of second component producing the end point, MIC)) [mg/L] | MIC ([2]; Candida albicans, ATCC10231, C. albicans 10231, PDB, 24 hours, alone where Qa = 0, otherwise in the mixture, read-out: Qb (concentration of second component producing the end point, MIC)) [mg/L] | MIC ([3]; Aspergillus niger, ATCC16404, 168 h, A. niger 16404, PDB, alone where Qa = 0, otherwise in the mixture, read-out: Qb (concentration of second component producing the end point, MIC)) [mg/L] | Compound | SI (synergy index) ([1]; E. coli 8739, M9GY, 24 hours) | Qb (concentration of second component producing the end point, MIC) ([1]; E. coli 8739, M9GY, 24 hours, alone where Qa = 0, otherwise in the mixture) [ppm] | SI ([1]; 24 hours, BBIT with Sodium benzoate) | SI (synergy index) ([2]; C. albicans 10231, PDB, 48 hours) | Qb (concentration of second component producing the end point, MIC) ([2]; C. albicans 10231, PDB, 48 hours, alone where Qa = 0, otherwise in the mixture) [ppm] | SI ([2]; 48 hours, BBIT with Sodium benzoate) | SI (synergy index) ([3]; A. niger 16404, PDB) | Qb (concentration of second component producing the end point, MIC) ([3]; A. niger 16404, PDB, alone where Qa = 0, otherwise in the mixture) [ppm] | SI ([3]; BBIT with Sodium benzoate) | SI (synergy index) ([1]; E. coli 8739, M9GY, 48 hours) | SI [1, 4] | SI (synergy index) ([2]; C. albicans 10231, PDB, 24 hours) | SI [2, 4] | SI ([3]; BBIT with Propylparaben)
1 | – | – | – | O=C([O-])c1ccccc1.[Na+] [Sodium benzoate] | 1.00 | 10000 | 1.00 | 1.00 | 2000 | 1.00 | 1.00 | 10000 | 1.00 | – | – | – | – | –
2 | 4000 | 2000 | 2000 | CCCOC(=O)c1ccc(O)cc1 [Propylparaben] | – | – | – | – | – | – | 1.00 | – | – | 1.00 | 1.00 | 1.00 | 1.00 | 1.00
